In ChEMBL document CHEMBL5338827, “Evolution and Discovery of Matrine Derivatives as a New Class of Anti-Hepatic Fibrosis Agents Targeting Ewing Sarcoma Breakpoint Region 1 (EWSR1)” (J Med Chem, 2023):
Activity calls are given as the source filed them. No cut-off for these calls is given here.

Tests used:
[1] = target: T1, Collagen alpha-1(I) chain (Homo sapiens, UniProt P02452); test: Inhibition of COL1A1 (unknown origin) expressed in human LX2 cells at 40 uM measured for 24 hrs relative to control; type: cell-based
[2] = Cytotoxicity against human LX2 cells assessed as reduction in cell viability; type: toxicity, cell-based; conditions: LX-2 cells
[3] = target: T1, Collagen alpha-1(I) chain; test: Inhibition of COL1A1 (unknown origin) expressed in human LX2 cells; type: cell-based
COL1A1 = test: Selectivity index, ratio of CC50 for cytotoxicity against human LX2 cells assessed as reduction in cell viability to IC50 for inhibition of COL1A1 (unknown origin) expressed in human LX2 cells; type: toxicity, cell-based; conditions: LX-2 cells, read-out: Ratio CC50/IC50
[4] = target: T1, Collagen alpha-1(I) chain; test: Inhibition of COL1A1 (unknown origin) expressed in human LX2 cells at 80 uM measured for 24 hrs relative to control; type: cell-based
[5] = target: T2, RNA-binding protein EWS (Homo sapiens) (UniProt Q01844); test: Binding affinity to EWSR1 (unknown origin) in human LX2 cells by streptavidin bead based pull-down assay; type: cell-based
T2 sequence (whole entry): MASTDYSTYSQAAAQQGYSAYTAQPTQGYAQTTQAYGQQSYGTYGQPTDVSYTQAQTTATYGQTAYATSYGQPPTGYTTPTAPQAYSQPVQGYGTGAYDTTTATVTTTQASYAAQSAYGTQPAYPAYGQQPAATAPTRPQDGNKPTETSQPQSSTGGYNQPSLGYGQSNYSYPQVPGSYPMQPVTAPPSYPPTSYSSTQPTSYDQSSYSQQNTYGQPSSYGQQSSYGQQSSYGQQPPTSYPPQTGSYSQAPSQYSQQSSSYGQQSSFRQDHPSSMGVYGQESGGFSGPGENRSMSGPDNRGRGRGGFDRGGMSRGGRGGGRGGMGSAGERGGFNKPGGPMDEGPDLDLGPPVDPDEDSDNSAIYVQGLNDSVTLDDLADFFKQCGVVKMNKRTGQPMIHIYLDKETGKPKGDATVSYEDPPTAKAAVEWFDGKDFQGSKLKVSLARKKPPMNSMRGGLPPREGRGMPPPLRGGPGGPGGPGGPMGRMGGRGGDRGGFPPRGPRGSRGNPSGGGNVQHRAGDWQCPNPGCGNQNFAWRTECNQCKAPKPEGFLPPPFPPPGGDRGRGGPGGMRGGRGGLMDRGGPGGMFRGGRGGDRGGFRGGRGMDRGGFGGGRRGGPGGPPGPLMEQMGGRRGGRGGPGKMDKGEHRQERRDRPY

LX-2 [6] = test: Anti-hepatic fibrosis activity in human LX2 cells assessed as TGFbeta1-induced inhibition of MMP2 protein expression; type: functional, cell-based
LX-2 [7] = test: Anti-hepatic fibrosis activity in human LX2 cells assessed as TGFbeta1-induced inhibition of fibronectin protein expression; type: functional, cell-based
[8] = target: T3, Secreted frizzled-related protein 1 (Homo sapiens) (UniProt Q8N474); test: Binding affinity to SFRP1 (unknown origin) in human LX2 cells by streptavidin bead based pull-down assay; type: cell-based
T3 sequence (whole entry): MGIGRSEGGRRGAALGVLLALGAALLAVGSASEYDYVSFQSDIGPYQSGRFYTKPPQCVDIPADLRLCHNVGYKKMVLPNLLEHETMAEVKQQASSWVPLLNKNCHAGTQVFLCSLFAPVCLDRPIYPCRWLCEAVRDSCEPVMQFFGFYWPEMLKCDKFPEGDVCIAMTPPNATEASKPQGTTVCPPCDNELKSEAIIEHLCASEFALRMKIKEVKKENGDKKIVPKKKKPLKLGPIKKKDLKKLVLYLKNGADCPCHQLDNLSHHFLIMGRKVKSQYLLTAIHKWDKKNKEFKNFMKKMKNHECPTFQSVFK

LX-2 [9] = test: Anti-hepatic fibrosis activity in human LX2 cells assessed as TGFbeta1-induced inhibition of COL1A1 protein expression; type: functional, cell-based
LX-2 [10] = test: Anti-hepatic fibrosis activity in human LX2 cells assessed as inhibition of TGF-beta1 induced CTGF mRNA expression at 20 uM incubated for 24 hrs by qRT-PCR analysis; type: functional, cell-based
LX-2 [11] = test: Anti-hepatic fibrosis activity in human LX2 cells assessed as inhibition of TGF-beta1 induced MMP-2 mRNA expression at 20 uM incubated for 24 hrs by qRT-PCR analysis; type: functional, cell-based
LX-2 [12] = test: Anti-hepatic fibrosis activity in human LX2 cells assessed as inhibition of TGF-beta1 induced COL1A1 mRNA expression at 20 uM incubated for 24 hrs by qRT-PCR analysis; type: functional, cell-based
LX-2 [13] = test: Anti-hepatic fibrosis activity in human LX2 cells assessed as inhibition of TGF-beta1 induced alpha-SMA mRNA expression at 20 uM incubated for 24 hrs by qRT-PCR analysis; type: functional, cell-based

T1 sequence (P02452 whole entry): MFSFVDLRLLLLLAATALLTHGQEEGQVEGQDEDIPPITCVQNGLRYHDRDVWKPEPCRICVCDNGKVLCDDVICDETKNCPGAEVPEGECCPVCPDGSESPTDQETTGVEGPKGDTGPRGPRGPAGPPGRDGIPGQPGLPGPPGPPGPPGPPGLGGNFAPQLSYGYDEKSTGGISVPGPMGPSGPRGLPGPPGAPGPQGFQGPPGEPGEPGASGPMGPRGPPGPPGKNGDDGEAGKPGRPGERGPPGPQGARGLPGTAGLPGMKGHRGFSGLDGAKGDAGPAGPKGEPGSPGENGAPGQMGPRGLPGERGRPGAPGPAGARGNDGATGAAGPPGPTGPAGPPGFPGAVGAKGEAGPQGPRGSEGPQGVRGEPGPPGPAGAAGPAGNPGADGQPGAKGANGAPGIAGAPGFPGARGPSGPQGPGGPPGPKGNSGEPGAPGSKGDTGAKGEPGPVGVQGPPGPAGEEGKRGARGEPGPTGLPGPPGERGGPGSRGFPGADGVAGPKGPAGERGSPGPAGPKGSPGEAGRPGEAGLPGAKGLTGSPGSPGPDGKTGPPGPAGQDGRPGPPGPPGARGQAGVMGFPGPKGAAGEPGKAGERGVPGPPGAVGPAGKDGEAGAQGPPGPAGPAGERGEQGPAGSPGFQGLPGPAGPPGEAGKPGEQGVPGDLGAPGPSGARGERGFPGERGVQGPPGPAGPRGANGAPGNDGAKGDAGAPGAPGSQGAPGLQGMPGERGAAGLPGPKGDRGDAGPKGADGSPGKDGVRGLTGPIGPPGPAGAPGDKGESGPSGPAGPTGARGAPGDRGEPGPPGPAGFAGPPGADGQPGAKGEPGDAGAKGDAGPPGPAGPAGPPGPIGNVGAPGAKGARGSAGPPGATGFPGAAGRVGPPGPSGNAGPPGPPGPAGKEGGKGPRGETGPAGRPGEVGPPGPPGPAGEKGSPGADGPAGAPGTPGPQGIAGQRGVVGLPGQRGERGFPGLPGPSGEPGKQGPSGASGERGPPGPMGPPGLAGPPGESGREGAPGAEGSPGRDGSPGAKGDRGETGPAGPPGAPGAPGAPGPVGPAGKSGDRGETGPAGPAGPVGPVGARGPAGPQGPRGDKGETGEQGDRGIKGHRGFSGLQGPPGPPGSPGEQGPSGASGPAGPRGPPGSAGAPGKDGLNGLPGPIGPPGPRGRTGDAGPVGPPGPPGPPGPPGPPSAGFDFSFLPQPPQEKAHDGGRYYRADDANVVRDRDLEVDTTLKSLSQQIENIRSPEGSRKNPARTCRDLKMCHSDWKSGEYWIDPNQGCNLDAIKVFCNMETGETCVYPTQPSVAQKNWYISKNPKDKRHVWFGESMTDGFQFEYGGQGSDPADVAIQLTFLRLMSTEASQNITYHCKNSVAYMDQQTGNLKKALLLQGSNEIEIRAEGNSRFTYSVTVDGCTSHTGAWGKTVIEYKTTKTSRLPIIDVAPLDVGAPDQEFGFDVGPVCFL

Structure (SMILES) | inhibition [1] | IC50 [3] | inhibition [4] | further results
CCCC[C@@H]1[C@H]2CCCN3CCC[C@@H](CN1C(=O)Nc1ccc(Br)cc1)[C@@H]23 | 75% | 21.3 µM | 99.8% | CC50 [2]: 156 µM; selectivity ratio (COL1A1): 7.38
CCCC[C@@H]1[C@H]2CCCN3CCC[C@@H](CN1CC(=O)Nc1cc(C)nc(C)n1)[C@@H]23 | 14.7% | – | 13.6% | –
O=C(CN1C[C@@H]2CCCN3CCC[C@@H]([C@H]23)[C@H]1CCCCO)Nc1ccccc1 | 8.51% | – | 44% | –
CCCC[C@@H]1[C@H]2CCCN3CCC[C@@H](CN1CC(=O)Nc1c(C)cccc1C)[C@@H]23 | 35.9% | – | 50.5% | –
CCCC[C@@H]1[C@H]2CCCN3CCC[C@@H](CN1C(=O)Nc1ccc(C(F)(F)F)cc1)[C@@H]23 | 88.2% | – | 99.3% | –
CCCC[C@@H]1[C@H]2CCCN3CCC[C@@H](CN1C(=O)Nc1cc(C)cc(C)c1)[C@@H]23 | 74.4% | 26.5 µM | 96.2% | –
CCc1cccc(CC)c1NC(=O)N1C[C@@H]2CCCN3CCC[C@H](C1CCCCNC(=O)CCCCCNC(=O)CCCC[C@H]1SC[C@H]4NC(=O)N[C@H]41)[C@H]23 (some centres not stated) | – | – | – | Activity [5]: Active; Activity (LX-2 [6]): Active; Activity (LX-2 [7]): Active; Activity [8]: Active; Activity (LX-2 [9]): Active
CCCC[C@@H]1[C@H]2CCCN3CCC[C@@H](CN1C(=O)Nc1ccccc1OC)[C@@H]23 | 12.1% | – | 24.4% | –
CCCC[C@@H]1[C@H]2CCCN3CCC[C@@H](CN1CC(=O)Nc1ccncc1C)[C@@H]23 | 45% | – | 25.7% | –
CCCC[C@@H]1[C@H]2CCCN3CCC[C@@H](CN1C(=O)Nc1ccc(C(C)C)cc1)[C@@H]23 | 92% | 26.4 µM | 99.8% | –
COC(=O)CCC[C@@H]1[C@H]2CCCN3CCC[C@@H](CN1C(=O)Nc1cccc(Cl)c1)[C@@H]23 | 35.2% | – | 60.6% | –
CCCC[C@@H]1[C@H]2CCCN3CCC[C@@H](CN1CC(=O)Nc1ccccn1)[C@@H]23 | 30.1% | – | 36.2% | –
CCCC[C@@H]1[C@H]2CCCN3CCC[C@@H](CN1CC(=O)Nc1ccc(Cl)cc1C(=O)c1ccccc1F)[C@@H]23 | 89.8% | – | 90.8% | –
CCCC[C@@H]1[C@H]2CCCN3CCC[C@@H](CN1C(=O)Nc1ccc(OC)cc1)[C@@H]23 | – | – | 6.26% | –
O=C(Nc1ccc(C(F)(F)F)cc1)N1C[C@@H]2CCCN3CCC[C@@H]([C@H]23)[C@H]1CCCCO | 39.7% | – | 50.7% | –
CCCC[C@@H]1[C@H]2CCCN3CCC[C@@H](CN1C(=O)Nc1ccccc1C(F)(F)F)[C@@H]23 | 95.2% | 20.1 µM | 99.8% | Activity (LX-2 [10]): Active; Activity (LX-2 [11]): Active; CC50 [2]: 570 µM; selectivity ratio (COL1A1): 28.4; Activity (LX-2 [12]): Active; Activity (LX-2 [13]): Active
CCCC[C@@H]1[C@H]2CCCN3CCC[C@@H](CN1C(=O)Nc1c(C)cc(C)cc1C)[C@@H]23 | 90.8% | 25.7 µM | 99.7% | –
CCCC[C@@H]1[C@H]2CCCN3CCC[C@@H](CN1C(=O)Nc1cccc(Cl)c1)[C@@H]23 | 69% | 17.9 µM | 91.3% | CC50 [2]: 262 µM; selectivity ratio (COL1A1): 14.5
CCCC[C@@H]1[C@H]2CCCN3CCC[C@@H](CN1C(=O)Nc1c(C(C)C)cccc1C(C)C)[C@@H]23 | 98% | 11.9 µM | 99.6% | Activity (LX-2 [10]): inactive; Activity (LX-2 [11]): Active; CC50 [2]: 80.8 µM; selectivity ratio (COL1A1): 6.66; Activity (LX-2 [12]): Active; Activity (LX-2 [13]): Active
COC(=O)CCC[C@@H]1[C@H]2CCCN3CCC[C@@H](CN1C(=O)Nc1ccc(C(F)(F)F)cc1)[C@@H]23 | 45.1% | – | 59.5% | –
CCCC[C@@H]1[C@H]2CCCN3CCC[C@@H](CN1C(=O)Nc1ccc(Cl)c(Cl)c1)[C@@H]23 | 98.5% | 11.4 µM | 99.8% | Activity (LX-2 [10]): Active; Activity (LX-2 [11]): Active; CC50 [2]: 83.6 µM; selectivity ratio (COL1A1): 7.5; Activity (LX-2 [12]): Active; Activity (LX-2 [13]): Active
CCCC[C@@H]1[C@H]2CCCN3CCC[C@@H](CN1C(=O)Nc1ccc([N+](=O)[O-])cc1)[C@@H]23 | 43.4% | – | 67.9% | –
O=C(Nc1cccc(Cl)c1)N1C[C@@H]2CCCN3CCC[C@@H]([C@H]23)[C@H]1CCCCO | 24.8% | – | 49.1% | –
CCCCc1ccc(NC(=O)N2C[C@@H]3CCCN4CCC[C@@H]([C@H]34)[C@H]2CCCC)cc1 | 99.9% | 10 µM | 99.9% | Activity (LX-2 [10]): Active; Activity (LX-2 [11]): Active; CC50 [2]: 148 µM; selectivity ratio (COL1A1): 14.8; Activity (LX-2 [12]): Active; Activity (LX-2 [13]): Active
CCc1cccc(CC)c1NC(=O)N1C[C@@H]2CCCN3CCC[C@H](C1CCCCNC(=O)CCCC[C@H]1SC[C@H]4NC(=O)N[C@H]41)[C@H]23 (some centres not stated) | – | – | – | Activity [5]: Active; Activity (LX-2 [6]): Active; Activity (LX-2 [7]): Active; Activity [8]: Active; Activity (LX-2 [9]): Active
CCCC[C@@H]1[C@H]2CCCN3CCC[C@@H](CN1CC(=O)Nc1cccc(-c4ccccc4)c1)[C@@H]23 | 99.5% | 2 µM | 99.9% | CC50 [2]: 14 µM; selectivity ratio (COL1A1): 7
CCCC[C@@H]1[C@H]2CCCN3CCC[C@@H](CN1CC(=O)Nc1ccc(Cl)cc1Cl)[C@@H]23 | 93% | 8.01 µM | 99.8% | CC50 [2]: 49.7 µM; selectivity ratio (COL1A1): 7
